Values of other authors as cited in patent US20150272920A1, “METHOD FOR TREATING OBESITY WITH ANTI-OBESITY FORMULATIONS AND OMEGA 3 FATTY ACIDS FOR THE REDUCTION OF BODY WEIGHT IN CARDIOVASCULAR DISEASE PATIENTS (CVD) AND DIABETICS” (PIVOTAL THERAPEUTICS INC., priority 2014, published 2015).

Target: CB1R (Homo sapiens, UniProt P21554)
Settings: in vivo

Chain of CB1R (P21554 whole entry): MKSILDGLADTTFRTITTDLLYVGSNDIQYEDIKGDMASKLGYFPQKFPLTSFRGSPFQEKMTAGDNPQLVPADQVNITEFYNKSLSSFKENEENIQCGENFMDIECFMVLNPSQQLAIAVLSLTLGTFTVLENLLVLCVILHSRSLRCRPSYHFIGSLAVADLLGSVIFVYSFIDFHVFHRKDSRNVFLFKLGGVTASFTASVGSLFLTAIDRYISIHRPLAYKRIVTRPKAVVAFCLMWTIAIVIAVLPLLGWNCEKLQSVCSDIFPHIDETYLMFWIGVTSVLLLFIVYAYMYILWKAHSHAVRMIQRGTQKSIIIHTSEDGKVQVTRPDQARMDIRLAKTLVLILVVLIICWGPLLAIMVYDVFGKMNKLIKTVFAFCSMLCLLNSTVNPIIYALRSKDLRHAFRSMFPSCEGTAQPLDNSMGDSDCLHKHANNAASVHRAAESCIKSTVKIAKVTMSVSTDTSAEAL

Structure (SMILES): CCNC1(C(N)=O)CCN(c2ncnc3c2nc(-c2ccccc2Cl)n3-c2ccc(Cl)cc2)CC1.Cl [CP-945,598]
- Reason for failure of phase III clinical trials (adverse reactions): psychiatric adverse reactions, including severe depression and anxiety
